Measurements from patent publication US20260001914A1, “MACROCYCLIC PEPTIDES TARGETING KRAS” (Merck Sharp & Dohme LLC, priority 2022, published 2026).
*1 amine or outer side, *2 acyl side, *3 side chain or, on linkers, in order; H or OH if unused. Where a SMILES comes first, the peptide text is derived from it. Bridges are numbered along the chain shown (N, C = ends). [ ]: non-standard residue; d: D form. Ala(1-bicyclo(1.1.1)pentyl) = N[C@@H](CC12CC(C1)C2)C(=O)O; NMeNva(5-imidazol-1-yl) = CN[C@@H](CCCn1ccnc1)C(=O)O; Phe(4-guanidino) = N=C(N)Nc1ccc(C[C@H](N)C(=O)O)cc1; X78 = Nc1ccnc2ccc(C[C@H](N[*:1])C(=O)[*:2])cc12; Ala(pyrimidin-5-yl) = N[C@@H](Cc1cncnc1)C(=O)O; X8 = CN([C@@H](Cc1ccc(F)nc1)C(=O)[*:2])[*:1]; X51 = COc1cc(C[C@H](N[*:1])C(=O)[*:2])ncn1; X62 = O=C([C@@H]1CC[C@H](N[*:1])C1)[*:2]; X69 = O=C([C@H]1CC[C@@H](N[*:1])C1)[*:2]; Phe(4-F) = N[C@@H](Cc1ccc(F)cc1)C(=O)O; X2 = O=C([C@H](Cc1ccccc1F)O[*:1])[*:2]; Ala(cPent) = N[C@@H](CC1CCCC1)C(=O)O; Phe(2-F) = N[C@@H](Cc1ccccc1F)C(=O)O; NMe3Pal = CN[C@@H](Cc1cccnc1)C(=O)O; X1 = O=C(C12CC(CN[*:1])(C1)C2)[*:2]; Ala(cPr) = N[C@@H](CC1CC1)C(=O)O; NMeF = CN[C@@H](Cc1ccccc1)C(=O)O; PhLac = O=C(O)[C@@H](O)Cc1ccccc1; X79 = O=C(C1CCC(N[*:1])CC1)[*:2]; hIle = CC[C@H](C)C[C@H](N)C(=O)O; 3Pal = N[C@@H](Cc1cccnc1)C(=O)O; 4Pal = N[C@@H](Cc1ccncc1)C(=O)O; Ahp(2) = CCCCC[C@H](N)C(=O)O; hLeu = CC(C)CC[C@H](N)C(=O)O; αMeC = C[C@](N)(CS)C(=O)O; NMeA = CN[C@@H](C)C(=O)O; Nle = CCCC[C@H](N)C(=O)O; Nva = CCC[C@H](N)C(=O)O

biological target: KRAS-G12D protein (Homo sapiens, UniProt P01116, G12D); assay: SOS-mediated nucleotide exchange assay (BODIPY-GDP / Tb-streptavidin TR-FRET); assay type: biochemical; conditions: not given
Sequence (P01116 1-188 isoform P01116-2 G12D): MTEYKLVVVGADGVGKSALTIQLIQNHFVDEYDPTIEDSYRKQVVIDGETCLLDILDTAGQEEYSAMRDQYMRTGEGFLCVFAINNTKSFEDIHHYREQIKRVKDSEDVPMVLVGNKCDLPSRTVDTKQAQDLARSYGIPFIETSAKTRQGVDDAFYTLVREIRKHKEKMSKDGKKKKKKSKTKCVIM

Structure (SMILES) | EC50 [nM]
CCCC[C@@H]1NC(=O)[C@H](Cc2ccc(OC)cc2)NC(=O)[C@H](CC(C)C)NC(=O)[C@H](Cc2ccc(NC(=N)N)cc2)NC(=O)[C@H](Cc2ccc3nccc(N)c3c2)NC(=O)[C@H](Cc2ccccc2)NC(=O)CSC[C@@H](C(N)=O)NC(=O)[C@H](Cc2ccccc2)N(C)C1=O [compound 29, cyclo(F-6Quin4NH2-Phe4Gn-L-TyrOMe-Nle-NMeF-Cl-ClAc)] ({CH2CO}-F[X78][Phe(4-guanidino)]LY(Me)[Nle][NMeF]C-NH2; thioether N-8) | 7790
CCCCC[C@@H]1NC(=O)[C@H](Cc2ccc(OC)cc2)NC(=O)[C@H](CC2CCCC2)NC(=O)[C@H](Cc2ccc(NC(=N)N)cc2)NC(=O)[C@H](CCCNC(=N)N)NC(=O)[C@H](Cc2ccccc2)NC(=O)CSC[C@@](C)(C(N)=O)NC(=O)[C@H](Cc2ccccc2)N(C)C1=O [compound 366, cyclo(F-R-Phe4Gn-cPeA-TyrOMe-Ahp-NMeF-aMeCl-ClAc)] ({CH2CO}-FR[Phe(4-guanidino)][Ala(cPent)]Y(Me)[Ahp(2)][NMeF][αMeC]-NH2; thioether N-8) | 4.01
CCCC[C@@H]1NC(=O)[C@H](Cc2cccnc2)NC(=O)[C@H](CCCNC(=N)N)NC(=O)[C@H](Cc2ccccc2)NC(=O)C2CCC(CC2)NC(=O)[C@H](Cc2ccccc2)N(C)C(=O)[C@H](CCCC)NC(=O)[C@H](Cc2ccc(OC)cc2)NC1=O [compound 201, cyclo(F-R-3Pal-Nle-TyrOMe-Nle-NMeF-cHxclacid4NH2)] (cyclo([3Pal][Nle]Y(Me)[Nle][NMeF][X79]FR)) | 256
CCCC[C@@H]1NC(=O)[C@H](Cc2cccnc2)NC(=O)[C@H](CCCNC(=N)N)NC(=O)[C@H](Cc2ccccc2)NC(=O)[C@@H]2CC[C@@H](C2)NC(=O)[C@H](Cc2ccccc2)N(C)C(=O)[C@H](CCCC)NC(=O)[C@H](Cc2ccc(OC)cc2)NC1=O [compound 203, cyclo(F-R-3Pal-Nle-TyrOMe-Nle-NMeF-bhcLeu)] (cyclo(FR[3Pal][Nle]Y(Me)[Nle][NMeF][X62])) | 193
CC(C)CC[C@@H]1NC(=O)[C@H](Cc2ccccc2F)NC(=O)[C@H](CC23CC(C2)C3)NC(=O)[C@H](Cc2cncnc2)NC(=O)[C@H](C)N(C)C(=O)[C@H](Cc2ccccc2)OC(=O)C23CC(CNC(=O)[C@H](Cc4ccccc4)N(C)C1=O)(C2)C3 [compound 272, cyclo(FLac-NMeA-PyrimAla-AlaPent-Phe2F-hL-NMeF-amBCP)] (cyclo([NMeA][Ala(pyrimidin-5-yl)][Ala(1-bicyclo(1.1.1)pentyl)][Phe(2-F)][hLeu][NMeF][X1][PhLac])) | 477
CCCC[C@@H]1NC(=O)[C@H](Cc2cc(OC)ncn2)NC(=O)[C@H](C)N(C)C(=O)[C@H](Cc2ccccc2)OC(=O)C23CC(CNC(=O)[C@H](Cc4ccccc4)N(C)C(=O)[C@H](CCCC)NC(=O)[C@H](Cc4ccccc4F)NC1=O)(C2)C3 [compound 306, cyclo(FLac-NMeA-Ala6Pyrim4OMe-Nle-Phe2F-Nle-NMeF-amBCP)] (cyclo([NMeA][X51][Nle][Phe(2-F)][Nle][NMeF][X1][PhLac])) | 7000
CCCC[C@@H]1NC(=O)[C@H](Cc2ccccc2F)NC(=O)C(CC2CC(F)(F)C2)NC(=O)[C@H](Cc2cncnc2)NC(=O)[C@H](C)N(C)C(=O)[C@H](Cc2ccccc2)OC(=O)C23CC(CNC(=O)[C@H](Cc4cccnc4)N(C)C1=O)(C2)C3 (single isomer, unassigned) [compound 123, cyclo(FLac-NMeA-PyrimAla-rF2Cba-Phe2F-Nle-NMe3Pal-amBCP)] | 8190
CCC[C@@H]1NC(=O)[C@H](Cc2ccc(OC)cc2)NC(=O)[C@H](CC(C)C)NC(=O)[C@H](Cc2ccncc2)NC(=O)[C@H](CCCNC(=N)N)NC(=O)[C@H](Cc2ccc(F)cc2)NC(=O)CSC[C@H](C(=O)NCC(=O)O)NC(=O)[C@H](Cc2ccccc2)N(C)C1=O [compound 65, cyclo(Phe4F-R-4Pal-L-TyrOMe-Nva-NMeF-dC5-ClAc)] ({CH2CO}-[Phe(4-F)]R[4Pal]LY(Me)[Nva][NMeF][dC]G-OH; thioether N-8) | 70.2
CCCC[C@@H]1NC(=O)[C@H](Cc2cncnc2)NC(=O)[C@H](CCCn2ccnc2)N(C)C(=O)[C@H](Cc2ccccc2)OC(=O)C23CC(CNC(=O)[C@H](Cc4cccnc4)N(C)C(=O)[C@H](CCCC)NC(=O)[C@H](Cc4ccccc4F)OC1=O)(C2)C3 [compound 246, cyclo(FLac-NMeNvalmid-PyrimAla-Nle-F2FLac-Nle-NMe3Pal-amBCP)] (cyclo([NMe3Pal][X1][PhLac][NMeNva(5-imidazol-1-yl)][Ala(pyrimidin-5-yl)][Nle][X2][Nle])) | 1160
CCC[C@@H]1NC(=O)[C@H](Cc2ccc(O)cc2)NC(=O)[C@H](CC(C)C)NC(=O)[C@H](Cc2ccc(O)cc2)NC(=O)[C@H](CCCNC(=N)N)NC(=O)[C@H](Cc2ccccc2)NC(=O)CSCCNC(=O)[C@H](Cc2ccccc2)N(C)C1=O [compound 83, cyclo(F-R-Y-L-Y-Nva-NMeF-Cysteamine-ClAc)] | 6350
CCCC[C@@H]1NC(=O)[C@H](Cc2cccnc2)NC(=O)[C@H](CCCNC(=N)N)NC(=O)[C@H](Cc2ccccc2)NC(=O)[C@H]2CC[C@H](C2)NC(=O)[C@H](Cc2ccccc2)N(C)C(=O)[C@H](CCCC)NC(=O)[C@H](Cc2ccc(OC)cc2)NC1=O [compound 202, cyclo(F-R-3Pal-Nle-TyrOMe-Nle-NMeF-dbhcLeu)] (cyclo(FR[3Pal][Nle]Y(Me)[Nle][NMeF][X69])) | 949
CCC[C@@H]1NC(=O)[C@H](Cc2ccc(OC)cc2)NC(=O)[C@H](C[C@@H](C)CC)NC(=O)[C@H](Cc2ccncc2)NC(=O)[C@H](CCCNC(=N)N)NC(=O)[C@H](Cc2ccc(F)cc2)NC(=O)CSC[C@H](C(=O)O)NC(=O)[C@H](Cc2ccccc2)N(C)C1=O [compound 62, cyclo(Phe4F-R-4Pal-hlle-TyrOMe-Nva-NMeF-dC-ClAc)] ({CH2CO}-[Phe(4-F)]R[4Pal][hIle]Y(Me)[Nva][NMeF][dC]-OH; thioether N-8) | 2060
CCCCC[C@@H]1NC(=O)[C@H](Cc2ccc(OC)cc2)NC(=O)[C@H](CC2CCC2)NC(=O)[C@H](Cc2ccc(N3CCC[C@H]3CN)cc2)NC(=O)[C@H](CCCNC(=N)N)NC(=O)[C@H](Cc2ccccc2)NC(=O)CSC[C@@](C)(C(N)=O)NC(=O)[C@H](Cc2ccccc2)N(C)C1=O [compound 392, cyclo(F-R-Phe4SamPyrr-cBuA-TyrOMe-Ahp-NMeF-aMeCl-ClAc)] | 8.59
CC(C)CC[C@@H]1NC(=O)[C@H](Cc2ccccc2F)NC(=O)[C@H](CC2CC2)NC(=O)[C@H](Cc2cncnc2)NC(=O)[C@H](C)N(C)C(=O)[C@H](Cc2ccccc2)OC(=O)C23CC(CNC(=O)[C@H](Cc4ccc(F)nc4)N(C)C1=O)(C2)C3 [compound 339, cyclo(FLac-NMeA-PyrimAla-cPrA-Phe2F-hL-NMe3Pal4F-amBCP)] (cyclo([Ala(cPr)][Phe(2-F)][hLeu][X8][X1][PhLac][NMeA][Ala(pyrimidin-5-yl)])) | 1

same assay, conditions: listed as 190

Structure (SMILES) | EC50 [nM]
COc1ccc(C[C@@H]2NC(=O)[C@H](CC3CCC3)NC(=O)[C@H](Cc3cccnc3)NC(=O)[C@H](CCCNC(=N)N)NC(=O)[C@H](Cc3ccccc3)NC(=O)CSC[C@](C)(C(N)=O)NC(=O)[C@@H]3CCCCCCC[C@H](NC2=O)C(=O)N3C)cc1 (single isomer, unassigned) [SEQ ID NO: 190] | 650
